# Measured values taken from patent US9617276B2, “Compounds and methods for treating AIDS and HIV infections” (priority 2009, dated 2017).
# Where two headings read alike, the source gives them in different places.
# Assays:
# HIV-1 protease = target: T1, HIV-1 protease (Human immunodeficiency virus type 1 group M subtype B, UniProt P04585); assay: HIV protease enzyme inhibition, fluorometric assay of Toth and Marshall; format: biochemical; conditions: read-out: Ki
# T1 construct: A simple, continuous fluorometric assay for HIV protease
# Procedure: (§1) The inhibitory potencies of acyclic and cyclic inhibitors were measured by the assay protocol of Toth and Marshall (Toth, M. V.; Marshall, G. R. A simple, continuous fluorometric assay for HIV protease. Int. J. Pep. Protien Res. 1990, 36, 544-55).
# HIV-1 = assay: antiviral assay (IC50); format: cell-based; conditions: read-out: IC50
# Procedure: as §1
# [1] = Human immunodeficiency virus 1, Table 1, acyclic compounds
# [2] = Human immunodeficiency virus 1, Table 2
# [3] = Human immunodeficiency virus 1, Table 3, E and Z isomers
# [4] = Human immunodeficiency virus 1, Table 4
smiles,measurement,setting,value
"C=CCCCCOc1cc(OC)ccc1S(=O)(=O)N(CC(C)CC=C)C[C@@H](O)[C@H](Cc1ccccc1)NC(=O)O[C@H]1CO[C@H]2OCC[C@H]21 (single isomer, unassigned) [Compound 19b]",Ki,HIV-1 protease; Table 4,< 10 nM
same,IC50,HIV-1; Table 4,< 100 nM
"C=CCCCCOc1cc(OC)ccc1S(=O)(=O)N(CC(C)CC=C)C[C@@H](O)[C@H](Cc1ccccc1)NC(=O)O[C@H]1CO[C@H]2OCC[C@H]21 (single isomer, unassigned) [Compound 19c]",Ki,HIV-1 protease; Table 4,< 10 nM
same,IC50,HIV-1; Table 4,> 1000 nM
C=CCCCCOc1cc(OC)ccc1S(=O)(=O)N(CCCCC=C)CC(O)C(Cc1ccccc1)NC(=O)OC1COC2OCCC12 (stereo not drawn) [Compound 13a],Ki,"HIV-1 protease; Table 1, acyclic compounds",< 100 nM
same,Ki,HIV-1 protease,16 nM
same,IC50,HIV-1; [1],> 1000 nM
C=CCCCCN(CC(O)C(Cc1ccccc1)NC(=O)OC1COC2OCCC12)S(=O)(=O)c1ccc(OC)cc1OCCCC=C (stereo not drawn) [Compound 13b],Ki,"HIV-1 protease; Table 1, acyclic compounds",< 100 nM
same,Ki,HIV-1 protease,11 nM
same,IC50,HIV-1; [1],> 1000 nM
same,IC50,HIV-1; Human immunodeficiency virus 1,> 1000 nM
C=CCCCCN(CC(O)C(Cc1ccccc1)NC(=O)OC1COC2OCCC12)S(=O)(=O)c1ccc(OC)cc1OCCC=C (stereo not drawn) [Compound 13c],Ki,"HIV-1 protease; Table 1, acyclic compounds",< 10 nM
C=CCCCCN(CC(O)C(Cc1ccccc1)NC(=O)OC1COC2OCCC12)S(=O)(=O)c1ccc(OC)cc1OCC=C (stereo not drawn) [Compound 13d],Ki,"HIV-1 protease; Table 1, acyclic compounds",< 10 nM
C=CCCCCOc1cc(OC)ccc1S(=O)(=O)N(CC=C)CC(O)C(Cc1ccccc1)NC(=O)OC1COC2OCCC12 (stereo not drawn) [Compound 13e],Ki,"HIV-1 protease; Table 1, acyclic compounds",< 10 nM
same,Ki,HIV-1 protease,1.7 nM
same,IC50,HIV-1; [1],< 100 nM
C=CCCCOc1cc(OC)ccc1S(=O)(=O)N(CC=C)CC(O)C(Cc1ccccc1)NC(=O)OC1COC2OCCC12 (stereo not drawn) [Compound 13f],Ki,"HIV-1 protease; Table 1, acyclic compounds",< 1 nM
same,IC50,HIV-1; [1],< 100 nM
C=CCCOc1cc(OC)ccc1S(=O)(=O)N(CC=C)CC(O)C(Cc1ccccc1)NC(=O)OC1COC2OCCC12 (stereo not drawn) [Compound 13g],Ki,"HIV-1 protease; Table 1, acyclic compounds",< 1 nM
COc1ccc2c(c1)OCCCCC=CCCCCN(CC(O)C(Cc1ccccc1)NC(=O)OC1COC3OCCC13)S2(=O)=O (stereo not drawn) [Compound 14a-E],Ki,"HIV-1 protease; Table 3, E and Z isomers",< 1 nM
same,IC50,"HIV-1; Table 3, E and Z isomers",< 100 nM
COc1ccc2c(c1)OCCCCC=CCCCCN(CC(O)C(Cc1ccccc1)NC(=O)OC1COC3OCCC13)S2(=O)=O (stereo not drawn) [Compound 14a-Z],Ki,"HIV-1 protease; Table 3, E and Z isomers",< 1 nM
same,IC50,"HIV-1; Table 3, E and Z isomers",> 1000 nM
COc1ccc2c(c1)OCCCCC=CCCCCN(CC(O)C(Cc1ccccc1)NC(=O)OC1COC3OCCC13)S2(=O)=O (stereo not drawn) [Compound 14a],Ki,HIV-1 protease; Table 2,< 1 nM
same,IC50,HIV-1; [2],< 100 nM
COc1ccc2c(c1)OCCCC=CCCCCN(CC(O)C(Cc1ccccc1)NC(=O)OC1COC3OCCC13)S2(=O)=O (stereo not drawn) [Compound 14b-Z],Ki,"HIV-1 protease; Table 3, E and Z isomers",< 1 nM
same,IC50,HIV-1; [3],< 10 nM
COc1ccc2c(c1)OCCC=CCCCCN(CC(O)C(Cc1ccccc1)NC(=O)OC1COC3OCCC13)S2(=O)=O (stereo not drawn) [Compound 14c-E],IC50,HIV-1; [3],< 10 nM
COc1ccc2c(c1)OCCCCC=CCN(CC(O)C(Cc1ccccc1)NC(=O)OC1COC3OCCC13)S2(=O)=O (stereo not drawn) [Compound 14e],Ki,HIV-1 protease; Table 2,< 1 nM
same,IC50,HIV-1; [2],< 100 nM
COc1ccc2c(c1)OCCCC=CCN(CC(O)C(Cc1ccccc1)NC(=O)OC1COC3OCCC13)S2(=O)=O (stereo not drawn) [Compound 14f],Ki,HIV-1 protease; Table 2,< 1 nM
same,IC50,HIV-1; [2],< 100 nM
COc1ccc2c(c1)OCCC=CCN(CC(O)C(Cc1ccccc1)NC(=O)OC1COC3OCCC13)S2(=O)=O (stereo not drawn) [Compound 14g],Ki,HIV-1 protease; Table 2,< 1 nM
COc1ccc2c(c1)OCC=CCN(CC(O)C(Cc1ccccc1)NC(=O)OC1COC3OCCC13)S2(=O)=O (stereo not drawn) [Compound 14h],Ki,HIV-1 protease; Table 2,< 10 nM
COc1ccc2c(c1)OCCCCCCCCCCN(CC(O)C(Cc1ccccc1)NC(=O)OC1COC3OCCC13)S2(=O)=O (stereo not drawn) [Compound 15a],Ki,HIV-1 protease; Table 2,< 1 nM
same,IC50,HIV-1; [2],< 100 nM
COc1ccc2c(c1)OCCCCCCCCCN(CC(O)C(Cc1ccccc1)NC(=O)OC1COC3OCCC13)S2(=O)=O (stereo not drawn) [Compound 15b],Ki,HIV-1 protease; Table 2,< 1 nM
same,Ki,HIV-1 protease,< 0.7 nM
same,IC50,HIV-1; [2],< 100 nM
same,IC50,HIV-1; Human immunodeficiency virus 1,< 49 nM
COc1ccc2c(c1)OCCCCCCCN(CC(O)C(Cc1ccccc1)NC(=O)OC1COC3OCCC13)S2(=O)=O (stereo not drawn) [Compound 15d],Ki,HIV-1 protease; Table 2,< 1 nM
same,IC50,HIV-1; [2],< 100 nM
"C=CCCCCOc1cc(OC)ccc1S(=O)(=O)N(C[C@@H](O)[C@H](Cc1ccccc1)NC(=O)O[C@H]1CO[C@H]2OCC[C@H]21)CC(C)(C)CC=C [Compound 19a, (3R,3aS,6aR)-Hexahydrofuro[2,3-b]furan-3-yl (2S,3R)-4-(N-(2,2-dimethylpent-4-enyl)-2-(hex-5-enyloxy)-4-methoxyphenylsulfonamido)-3-hydroxy-1-phenylbutan-2-ylcarbamate]",Ki,HIV-1 protease; Table 4,< 100 nM
same,IC50,HIV-1; [4],> 1000 nM
COc1ccc2c(c1)OCCCCC=CCC(C)(C)CN(CC(O)C(Cc1ccccc1)NC(=O)OC1COC3OCCC13)S2(=O)=O (stereo not drawn) [Compound 20a],Ki,HIV-1 protease; Table 4,< 100 nM
same,IC50,HIV-1; [4],> 1000 nM
COc1ccc2c(c1)OCCCCC=CCC(C)CN(CC(O)C(Cc1ccccc1)NC(=O)OC1COC3OCCC13)S2(=O)=O (stereo not drawn) [Compound 20b],Ki,HIV-1 protease; Table 4,< 10 nM
same,IC50,HIV-1; Table 4,< 100 nM
COc1ccc2c(c1)OCCCCC=CCC(C)CN(CC(O)C(Cc1ccccc1)NC(=O)OC1COC3OCCC13)S2(=O)=O (stereo not drawn) [Compound 20c],Ki,HIV-1 protease; Table 4,< 1 nM
same,Ki,HIV-1 protease,0.31 nM
same,IC50,HIV-1; Human immunodeficiency virus 1,9 nM
same,IC50,HIV-1; Table 4,< 10 nM
COc1ccc2c(c1)OCCCCC=CCC(C)(C)CN(CC(O)C(Cc1ccccc1)NC(=O)OC1COC3OCCC13)S2(=O)=O (stereo not drawn) [Compound 21a],Ki,HIV-1 protease; Table 4,< 10 nM
same,IC50,HIV-1; Table 4,> 1000 nM
COc1ccc2c(c1)OCCCCC=CCC(C)CN(CC(O)C(Cc1ccccc1)NC(=O)OC1COC3OCCC13)S2(=O)=O (stereo not drawn) [Compound 21b],Ki,HIV-1 protease; Table 4,< 10 nM
same,Ki,HIV-1 protease,2.8 nM
same,IC50,HIV-1; Table 4,< 10 nM
same,IC50,HIV-1,6.3 nM
COc1ccc2c(c1)OCCCCC=CCC(C)CN(CC(O)C(Cc1ccccc1)NC(=O)OC1COC3OCCC13)S2(=O)=O (stereo not drawn) [Compound 21c],Ki,HIV-1 protease; Table 4,< 1 nM
same,IC50,HIV-1; Table 4,< 100 nM
COc1ccc2c(c1)OCCCCCCCC(C)(C)CN(CC(O)C(Cc1ccccc1)NC(=O)OC1COC3OCCC13)S2(=O)=O (stereo not drawn) [Compound 22a],Ki,HIV-1 protease; Table 4,< 10 nM
same,IC50,HIV-1; [4],> 1000 nM
COc1ccc2c(c1)OCCCCCCCC(C)CN(CC(O)C(Cc1ccccc1)NC(=O)OC1COC3OCCC13)S2(=O)=O (stereo not drawn) [Compound 22b],Ki,HIV-1 protease; Table 4,< 1 nM
same,IC50,HIV-1; Table 4,< 1000 nM
COc1ccc2c(c1)OCCCCCCCC(C)CN(CC(O)C(Cc1ccccc1)NC(=O)OC1COC3OCCC13)S2(=O)=O (stereo not drawn) [Compound 22c],Ki,HIV-1 protease; Table 4,< 1 nM
same,IC50,HIV-1; Table 4,< 100 nM
COc1ccc2c(c1)OCCCCCN1CCC[C@@H]1CN(C[C@@H](O)[C@H](Cc1ccccc1)NC(=O)O[C@H]1CO[C@H]3OCC[C@H]31)S2(=O)=O [Compound 00610A],Ki,HIV-1 protease; Table 5,> 100 nM
C=CCN1CCCC1CN(C[C@@H](O)[C@H](Cc1ccccc1)NC(=O)O[C@H]1CO[C@H]2OCC[C@H]21)S(=O)(=O)c1ccc(OC)cc1 (stereo partly drawn) [Compound 0649A],Ki,HIV-1 protease; Table 5,< 10 nM
C=CCOc1cc(OC)ccc1S(=O)(=O)N(CC1CCCN1CC=C)C[C@@H](O)[C@H](Cc1ccccc1)NC(=O)O[C@H]1CO[C@H]2OCC[C@H]21 (stereo partly drawn) [Compound 0659A],Ki,HIV-1 protease; Table 5,> 100 nM
COc1ccc2c(c1)OCC/C=C/CN1CCC[C@H]1CN(C[C@@H](O)[C@H](Cc1ccccc1)NC(=O)O[C@H]1CO[C@H]3OCC[C@H]31)S2(=O)=O [Compound 00810A],Ki,HIV-1 protease; Table 5,> 100 nM
COc1ccc2c(c1)OCC/C=C/CN1C(=O)CC[C@@H]1CN(C[C@@H](O)[C@H](Cc1ccccc1)NC(=O)OC(C)(C)C)S2(=O)=O [Compound 00910A],Ki,HIV-1 protease; Table 5,> 100 nM
COc1ccc2c(c1)OCC/C=C\CN1C(=O)CC[C@@H]1CN(C[C@@H](O)[C@H](Cc1ccccc1)NC(=O)OC(C)(C)C)S2(=O)=O [Compound 01010A],Ki,HIV-1 protease; Table 5,> 100 nM
C=CCN1C(=O)CC[C@@H]1CN(C[C@@H](O)[C@H](Cc1ccccc1)NC(=O)O[C@H]1CO[C@H]2OCC[C@H]21)S(=O)(=O)c1ccc(OC)cc1 [Compound 01110A],Ki,HIV-1 protease; Table 5,< 1 nM
COc1ccc2c(c1)OCC/C=C/CN1C(=O)CC[C@@H]1CN(C[C@@H](O)[C@H](Cc1ccccc1)NC(=O)O[C@H]1CO[C@H]3OCC[C@H]31)S2(=O)=O [Compound 01210A],Ki,HIV-1 protease; Table 5,< 1 nM
COc1ccc2c(c1)OCC/C=C\CN1C(=O)CC[C@@H]1CN(C[C@@H](O)[C@H](Cc1ccccc1)NC(=O)O[C@H]1CO[C@H]3OCC[C@H]31)S2(=O)=O [Compound 01310A],Ki,HIV-1 protease; Table 5,< 100 nM
COc1ccc2c(c1)OCCC=CCN1C(=O)CC[C@H]1CN(C[C@@H](O)[C@H](Cc1ccccc1)NC(=O)O[C@H]1CO[C@H]3OCC[C@H]31)S2(=O)=O [Compound 01410A],Ki,HIV-1 protease; Table 5,> 100 nM
COc1ccc2c(c1)OCCCCCN1C(=O)CC[C@H]1CN(C[C@@H](O)[C@H](Cc1ccccc1)NC(=O)O[C@H]1CO[C@H]3OCC[C@H]31)S2(=O)=O [Compound 02110A],Ki,HIV-1 protease; Table 5,< 100 nM
COc1ccc2c(c1)OCCCCCN1C(=O)CC[C@@H]1CN(C[C@@H](O)[C@H](Cc1ccccc1)NC(=O)O[C@H]1CO[C@H]3OCC[C@H]31)S2(=O)=O [Compound 02210A],Ki,HIV-1 protease; Table 5,< 1 nM
